Laboratory results published in patent US4732977A, “Carbapenem antibiotics” (priority 1986, dated 1988).
Converted amounts (≈) assume the structure as drawn. Like-named read-outs stand apart in the source and are kept apart here.

Columns and labels:
S. aureus A-9537 = assay: M.I.C., tube dilution; type: cell-based; details: Staphylococcus aureus, read-out: MIC
[1] = system: S. aureus A15097 (Meth-res.); assay: M.I.C., tube dilution; type: cell-based; details: Staphylococcus aureus, overnight incubation at 37° C.
S. faecalis A20688 = assay: M.I.C., tube dilution; type: cell-based; details: Enterococcus faecalis, A20688, overnight incubation at 37° C., Nutrient Broth; read-out: MIC
E. coli A15119 = assay: M.I.C., tube dilution; type: cell-based; details: Escherichia coli, A15119, overnight incubation at 37° C., Nutrient Broth
E. coli A20341-1 = assay: M.I.C., tube dilution; type: cell-based; details: Escherichia coli, A203411, overnight incubation at 37° C., Nutrient Broth
P. vulgaris A21559 = assay: M.I.C., tube dilution; type: cell-based; details: Proteus vulgaris, A21559, overnight incubation at 37° C., Nutrient Broth; read-out: MIC
P. aeruginosa A21213 = assay: M.I.C., tube dilution; type: cell-based; details: Pseudomonas aeruginosa, A21213, overnight incubation at 37° C., Nutrient Broth; read-out: MIC
B. fragilis A22862 = assay: M.I.C., tube dilution; type: cell-based; details: Bacteroides fragilis, overnight incubation at 37° C., Nutrient Broth
P. aeruginosa A-9843a = assay: animal or person; type: in vivo, mice; details: Pseudomonas aeruginosa, A9843A, in Mus musculus, im, read-out: PD50/treatment
Description: (§1) The PD50 (dose in mg/kg required to give protection to 50% of the infected mice) is indicated.
with drugs 0 and 2 hours postinfection.
(§2) The PD50 (dose in mg/kg) required to give protection to 50% of the infected mice is indicated.

[2] = Blood levels in mice after intramuscular administration; details: mouse, blood, im, 20 mg/kg;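 also: compounds dissolved in 0.1 M phosphate buffer at pH 7, data from one experiment using four mice for each compound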
Description: Compounds were solubilized in 0.1 M phosphate buffer pH 7.
a single test; 4 mice used per compound.
Compounds were solubilized in 0.1 M phosphate buffer, pH 7.
on a single test; 4 mice per compound.

P. mirabilis A-9900 [3] = assay: Protective effect in intramuscular treatment of infected mice; type: in vivo; details: Proteus mirabilis, mice, i.m., read-out: PD50/treatment
Description: as §1
with drugs 0 and 2 hours postinfection.
as §2

S. aureus A-9606 = assay: as above; type: in vivo; details: Staphylococcus aureus, read-out: PD50/treatment
Description: as §1
with drugs 0 and 2 hours postinfection.
as §2

E. coli A-15119 = assay: as above; type: in vivo; details: Escherichia coli, read-out: PD50/treatment
Description: as §1
with drugs 0 and 2 hours postinfection.
as §2

K. pneumoniae A9664 = assay: as above; type: in vivo; details: Klebsiella pneumoniae
Description: as §2

P. aeruginosa A24081 = assay: as above; type: in vivo; details: Pseudomonas aeruginosa, read-out: PD50/treatment
Description: as §2

H. influenzae A-9833 = assay: M.I.C., tube dilution; type: cell-based; details: Haemophilus influenzae, A9833; overnight incubation at 37° C., Nutrient Broth
H. influenzae A21518 = assay: M.I.C., tube dilution; type: cell-based; details: Haemophilus influenzae, overnight incubation at 37° C., Nutrient Broth
K. pneumoniae A-9664 = assay: M.I.C., tube dilution; type: cell-based; details: Klebsiella pneumoniae, A9664, overnight incubation at 37° C., Nutrient Broth; read-out: MIC
K. pneumoniae A20468 = assay: M.I.C., tube dilution; type: cell-based; details: Klebsiella pneumoniae, A20468, overnight incubation at 37° C., Nutrient Broth; read-out: MIC
P. mirabilis A-9900 [4] = assay: M.I.C., tube dilution; type: cell-based; details: Proteus mirabilis, A9900, overnight incubation at 37° C., Nutrient Broth; read-out: MIC
S. marcescens A20019 = assay: M.I.C., tube dilution; type: cell-based; details: Serratia marcescens, A20019; overnight incubation at 37° C., Nutrient Broth; read-out: MIC
E. cloacae A-9656 = assay: M.I.C., tube dilution; type: cell-based; details: Enterobacter cloacae, A9656, overnight incubation at 37° C., Nutrient Broth; read-out: MIC
[5] = Half-life (stability) in buffer solution; type: physicochemical; details: 10^-4 M, (phosphate) buffer pH 7.4, 37° C.; read-out: half-life in solution (converted)
Description: T1/2 =9.8 h (measured at a concentration of 10^-4 M in phosphate buffer pH 7.4 at 36.8° C.).
UV (phosphate buffer, pH 7.4) λmax 294 nm (ε=8,202); T1/2 (phosphate buffer, pH 7.4, M=0.967, T=37° C.) 9.1 h.
(c of 10^-4 M in pH 7.4 phosphate buffer.
.tau.1/2 =20.8 h measured at 37° C. in buffer (pG 7.4) for a concentration of 10^-4 M.
.tau.1/2 =12.5 h measured at 37° C. in buffer pH 7.4 for a concentration of 10^-4 M.
h (measured for a concentration of 10^-4 M at 36.8° C. in buffer pH 7.4).
.tau.1/2 =26.0 h (measured for a concentration of 10^-4 M at 36.8° C. in buffer pH 7.4).
.tau.1/2 =16.6 h (measured at 36.8° C., pH 7.4 for a concentration of 10^-4 M) and (5R, 6S) 6-(1R-hydroxyethyl)7-oxo-3-[1,2,6-trimethylpyridinium-4-yl)methylthio]-1-azabicyclo[3.2.0 hept-2-ene-2-carboxylate, 0.010 g, 0.7%;
.tau.1/2 =11.6 h (measured for a concentration of 10^-4 M at 36.8° C. in buffer pH 7.4).
.tau.1/2 =13.4 h (measured for a concentration of 10^-4 M at 36.8° C. in buffer pH 7.4).
.tau.1/2 =14.4 h (measured for a concentration of 10^-4 M at 36.8° C. in buffer pH 7.4).
T 1/2: 10.2 h (biological buffer).
.tau.1/2 =10.2 h measured at 36.8° C. for a concentration of 10^-4 M in buffer pH 7.4.

S. pneumoniae A-9585 = assay: M.I.C., tube dilution; type: cell-based; details: Streptococcus pneumoniae, A9585; overnight incubation at 37° C., Nutrient Broth; read-out: MIC
S. pyogenes A-9604 = assay: M.I.C., tube dilution; type: cell-based; details: Streptococcus pyogenes, A9604; overnight incubation at 37° C., Nutrient Broth; read-out: MIC
[6] = system: S. aureus A-9606 (Pen-res.); assay: M.I.C., tube dilution; type: cell-based; details: Staphylococcus aureus, overnight incubation at 37° C.
P. morganii A15153 = assay: M.I.C., tube dilution; type: cell-based; details: Morganella morganii, A15153, printed M. morganii A15153; overnight incubation at 37° C.; read-out: MIC
P. rettgeri A22424 = assay: M.I.C., tube dilution; type: cell-based; details: Providencia rettgeri, A22424; overnight incubation at 37° C., Nutrient Broth; read-out: MIC
E. cloacae A-9659 = assay: M.I.C., tube dilution; type: cell-based; details: Enterobacter cloacae, A9659; overnight incubation at 37° C., Nutrient Broth; read-out: MIC
[7] = im, K. pneumoniae A9664, read-out: PD50/treatment
[8] = im, mice, i.m., P. aeruginosa A24081

CCC[n+]1ccc(CSC2=C(C(=O)[O-])N3C(=O)[C@H]([C@@H](C)O)[C@H]3C2)cc1 [Example 6, 3-(1-Propylpyridine-4-yl-methanethio)-6α-[1-(R)-hydroxyethyl]-7-oxo-1-azabicyclo(3.2.0)hept-2-ene-2-carboxylate]
MIC (S. aureus A-9537; A9537, +50% serum): 0.06 µg/mL (≈ 0.166 µM)
MIC [1]: 4 µg/mL (≈ 11 µM)
MIC (S. faecalis A20688): 0.5 µg/mL (≈ 1.38 µM)
MIC (E. coli A15119): 0.06 µg/mL (≈ 0.166 µM)
MIC (E. coli A20341-1): 0.06 µg/mL (≈ 0.166 µM)
MIC (P. vulgaris A21559): 0.06 µg/mL (≈ 0.166 µM)
MIC (P. aeruginosa A21213): 1 µg/mL (≈ 2.76 µM)
MIC (B. fragilis A22862): 0.03 µg/mL (≈ 0.0828 µM)
ED50 (P. aeruginosa A-9843a): 0.4 mg/kg
AUC [2]: 8500 ng·h/mL
Cmax [2]: 17700 ng/mL
half-life [2]: 9 min

Cc1ccc[n+](C)c1CSC1=C(C(=O)[O-])N2C(=O)[C@H]([C@@H](C)O)[C@H]2C1 [Example 7, 3-(N-Methyl-3-methylpyridine-2-methanethio)-6α-[1-(R)-hydroxyethyl]-7-oxo-1-azabicyclo(3.2.0)hept-2-ene-2-carboxylate]
MIC [1]: 2 µg/mL (≈ 5.74 µM)
MIC (P. vulgaris A21559): 0.008 µg/mL (≈ 0.023 µM)
MIC (B. fragilis A22862): 0.016 µg/mL (≈ 0.0459 µM)
ED50 (P. mirabilis A-9900 [3]; im, P. mirabilis A9900): 2.4 mg/kg
ED50 (P. aeruginosa A-9843a): 0.2 mg/kg
ED50 (S. aureus A-9606; A9606, im): 0.2 mg/kg
ED50 (E. coli A-15119; A15119, im): 0.2 mg/kg
ED50 (K. pneumoniae A9664; [7]): 1 mg/kg
ED50 (P. aeruginosa A24081; [8]): 0.1 mg/kg
AUC [2]: 11800 ng·h/mL
Cmax [2]: 19200 ng/mL
half-life [2]: 11 min

C[C@@H](O)[C@H]1C(=O)N2C(C(=O)[O-])=C(SCCc3cccc[n+]3C)C[C@H]12 [Example 5, 3-(N-Methylpyridine-2-yl-ethanethio)-6α-[1-(R)-hydroxyethyl]-7-oxo-1-azabicyclo(3.2.0)hept-2-ene-2-carboxylate]
MIC (P. vulgaris A21559): 0.016 µg/mL (≈ 0.0459 µM)
MIC (P. aeruginosa A21213): 2 µg/mL (≈ 5.74 µM)
MIC (H. influenzae A-9833): 4 µg/mL (≈ 11.5 µM)
MIC (H. influenzae A21518): 4 µg/mL (≈ 11.5 µM)
MIC (B. fragilis A22862): 0.03 µg/mL (≈ 0.0861 µM)
ED50 (P. mirabilis A-9900 [3]; A9900, im, P. mirabilis, strain not given): 10 mg/kg
ED50 (P. aeruginosa A-9843a): 1.6 mg/kg
ED50 (S. aureus A-9606; A9606, im, mice, i.m., S. aureus, strain not given): 0.2 mg/kg
ED50 (E. coli A-15119; A15119, im, mice, i.m., E. coli, strain not given): 4 mg/kg
ED50 (K. pneumoniae A9664; A9664, im, i.m., K. pneumoniae, strain not given, read-out: PD50/treatment): 3 mg/kg

C[C@@H](O)[C@H]1C(=O)N2C(C(=O)[O-])=C(SCc3n[n+](C)nn3C)C[C@H]12 [Example 20, (1'R,5R,6S) 3-[(1,3-dimethyl-5-tetrazolium)-methylthio]-6-(1-hydroxyethyl)-7-oxo-1-azabicyclo[3.2.0]hept-2-ene-2-carboxylate]
MIC (S. aureus A-9537; A9537, overnight incubation at 37° C., Nutrient Broth): 0.5 µg/mL (≈ 1.47 µM)
MIC (S. faecalis A20688): 16 µg/mL (≈ 47.1 µM)
MIC (E. coli A15119; read-out: MIC): 1 µg/mL (≈ 2.95 µM)
MIC (E. coli A20341-1; read-out: MIC): 2 µg/mL (≈ 5.89 µM)
MIC (K. pneumoniae A-9664): 4 µg/mL (≈ 11.8 µM)
MIC (K. pneumoniae A20468): 4 µg/mL (≈ 11.8 µM)
MIC (P. mirabilis A-9900 [4]): 4 µg/mL (≈ 11.8 µM)
MIC (P. vulgaris A21559): 4 µg/mL (≈ 11.8 µM)
MIC (S. marcescens A20019): 4 µg/mL (≈ 11.8 µM)
MIC (E. cloacae A-9656): 16 µg/mL (≈ 47.1 µM)
MIC (P. aeruginosa A21213): 16 µg/mL (≈ 47.1 µM)
half-life at 100 µM [5]: 630 min
AUC [2]: 15600 ng·h/mL
Cmax [2]: 28400 ng/mL
half-life [2]: 14 min

C[C@@H](O)[C@H]1C(=O)N2C(C(=O)[O-])=C(SCc3n(C)cc[n+]3C)C[C@H]12 [Example 9, 3-(N,N'-Dimethylimidazole-2-yl-methanethio)-6α-[1-(R)-hydroxyethyl]-7-oxo-1-azabicyclo(3.2.0)hept-2-ene-2-carboxylate]
MIC (S. pneumoniae A-9585): 0.001 µg/mL (≈ 0.00296 µM)
MIC (S. pyogenes A-9604): 0.001 µg/mL (≈ 0.00296 µM)
MIC (S. aureus A-9537; A9537, +50% serum): 0.008 µg/mL (≈ 0.0237 µM)
MIC (P. vulgaris A21559): 0.008 µg/mL (≈ 0.0237 µM)
ED50 (P. mirabilis A-9900 [3]; im, P. mirabilis A9900): 7.1 mg/kg
ED50 (P. aeruginosa A-9843a): 0.19 mg/kg
ED50 (E. coli A-15119; im, mice, i.m., E. coli A15119): 1.2 mg/kg
ED50 (K. pneumoniae A9664; [7]): 1.8 mg/kg
ED50 (P. aeruginosa A24081; A24081, im): 0.19 mg/kg
AUC [2]: 8500 ng·h/mL
Cmax [2]: 16700 ng/mL
half-life [2]: 12 min

Cc1scc(CSC2=C(C(=O)[O-])N3C(=O)[C@H]([C@@H](C)O)[C@H]3C2)[n+]1C [Example 8, 3-(2-Methyl-N-methyl-thiazole-4-yl-methanethio)-6-α-[1-(R)-hydroxyethyl]-7-oxo-1-azabicyclo(3.2.0)hept-2-ene-2-carboxylate]
MIC (S. faecalis A20688): 0.5 µg/mL (≈ 1.41 µM)
MIC (P. vulgaris A21559): 0.03 µg/mL (≈ 0.0846 µM)
ED50 (P. mirabilis A-9900 [3]; im, P. mirabilis A9900): 1.4 mg/kg
ED50 (P. aeruginosa A-9843a): 0.19 mg/kg
ED50 (S. aureus A-9606; im, mice, i.m., S. aureus A9606): 0.21 mg/kg
ED50 (E. coli A-15119; im, mice, i.m., E. coli A15119): 0.86 mg/kg
ED50 (K. pneumoniae A9664; [7]): 1.8 mg/kg
ED50 (P. aeruginosa A24081; [8]): 0.33 mg/kg
AUC [2]: 10500 ng·h/mL
Cmax [2]: 18800 ng/mL
half-life [2]: 11 min

C[C@@H](O)[C@H]1C(=O)N2C(C(=O)[O-])=C(SCc3cn(C)n[n+]3CC(=O)O)C[C@H]12 [Example 17, Potassium 3-[5-(1-carboxylatomethyl-3-methyl-1,2,3-triazolium)-methanethio]-6α-[1-(R)-hydroxyethyl]-7-oxo-1-azabicyclo[3.2.0]hept-2-ene-2-carboxylate]
MIC (S. aureus A-9537; A9537, +50% serum): 1 µg/mL
MIC [6]: 0.5 µg/mL
MIC (S. faecalis A20688): 4 µg/mL
MIC (E. coli A15119; read-out: MIC): 0.6 µg/mL
MIC (E. coli A20341-1; read-out: MIC): 0.6 µg/mL
MIC (K. pneumoniae A20468): 0.5 µg/mL
MIC (P. vulgaris A21559): 0.13 µg/mL
MIC (P. morganii A15153): 0.5 µg/mL
MIC (P. rettgeri A22424): 2 µg/mL
MIC (E. cloacae A-9659): 2 µg/mL
MIC (E. cloacae A-9656): 2 µg/mL
MIC (P. aeruginosa A21213): 16 µg/mL
AUC [2]: 3400 ng·h/mL
Cmax [2]: 11000 ng/mL
half-life [2]: 8 min
